# According to patent US20220193013A1, “Pharmaceutical Composition for Treatment or Prevention of Multiple Inflammatory Disorders” (priority 2020, published 2022):
# Legend:
# [1] = tested on: leptin-deficient (ob/ob) mice; test: body weight study of denatonium acetate in leptin-deficient (ob/ob) mice fed with high-fat diet, 28 days; assay type: in vivo, mouse; settings: vs vehicle
# Protocol: This example describes an in vivo study of denatonium acetate on body weight in leptin-deficient (ob/ob) mice. Adult leptin-deficient mice (homozygote, ob/ob mice) fed with high-fat diet. There was a vehicle control group (15 mice) that were treated with distilled water by gavage BID. The DA group (15 mice) were treated with a DA solution at a dose of 23.1 mg/kg BID. Body weights and body weight changes were determined at days 1, 3, 7, 10, 14, 21, 24 and 28. Food intake was determined on days 3, 7, 10, 14, 17, 21, […] and 28. On day 28 blood samples were taken for cytokine analysis, HbA1c, HDL, LDL, insulin, and bile acids. Statistics were done by two-way repeated measures ANOVA followed by Tukey's multiple comparison post hoc test.
# [2] = tested on: inflammatory biomarkers in tested animals; test: biomarkers compared across many studies (Table 2); assay type: in vivo; settings: PO 92.4 mg/kg DA BID
# Protocol: The many examples provided herein show the effect of the denatonium salts on various in vivo and in vitro models of various disease indications. In addition, blood samples were taken from the tested (and control) animals and various biomarkers were measured and compared. FIGS. 70A-C show graphs comparing biomarkers across many studies. […] It should be noted that clusters of multiple biomarkers predict effectiveness for each disease indication and that grouping is shown in FIG. 71.
# [3] = tested on: air pouch model of inflammation, C57BL/6 mice; test: murine air pouch model of inflammation (LPS induction); assay type: in vivo, mouse
# Protocol: This example provides the results of investigating DA to modulate immune response in a murine air pouch model of inflammation. Eight C57BL/6 mice were assigned to groups for gavage treatment (BID) of controls (distilled water), DA at a dose of 23.1 mg/kg BID (low dose DA), and DA at a dose of 96.4 mg/kg BID (high dose DA). What was measured was infiltrating cell counts with air pouch exudates, IL-6 levels in air pouch exudates by an ELISA assay (R&D Systems Cat. No. M6000B), and multiple cytokine analysis (Mouse 32Plex Kit MilliporeSigma Cat. No. MCYTMAG70PMX32BK). Statistical analysis was done by a one-way ANOVA followed by Tukey's multiple comparison post hoc test for data with normal distribution, Kruskal-Wallis test followed by Dunn's multiple comparison post hoc test for data with skewed distribution, and the ROUT method for identifying outliers.
# Duarte et al., Current Protocols in Pharmacology, 5.6.1-5.6.8 Mar. 2012, describes “The subcutaneous air pouch is an in vivo model that can be used to study acute and chronic inflammation, the resolution of the inflammatory response, and the oxidative stress response. Injection of irritants into an air pouch in rats or mice induces an inflammatory response that can be quantified by the volume of exudate produced, the infiltration of cells, and the release of inflammatory mediators. The model presented in this unit has been extensively used to identify potential anti-inflammatory drugs.” It can be used to study localized inflammation without systemic effects. But in this case the drug was administered orally, by gavage BID.
# Test administration was 5 ml/kg body weight BID dosing with 8 hour intervals. The air pouch was created in each test BL6 mouse by sc injection of 1.5 ml/mouse of sterile air on day 0 and 1.5 ml/mouse of sterile air on day 3. Compounds (or control distilled water) were administered BID on day −2. LPS (0.75 mg/animal in 1 ml endotoxin free PBS) was administered at hour 0 or one hour after dosing with test compounds. Plasma samples were collected at termination and exudates of the air pouches for all groups. Cell count analysis and IL-6 assays were conducted at the animal facility and plasma and exudate samples were sent out for cytokine analysis. Each group of distilled water control, 23.1 mg/kg DA and 92.4 mg/kg DA had 8 mice each.
# [4] = tested on: leptin-deficient (ob/ob) mice; test: body weight study in leptin-deficient (ob/ob) mice, 56 days; assay type: in vivo, mouse
# Protocol: Therefore, ob/ob mice are a predictive in vivo model for these indications. This example provides results of a study of DA plus another compound (CQL) on body weight in leptin-deficient (ob/ob) mice. Vehicle group (N=14) were treated with distilled water by gavage BID, and DA (N=14) at a dose of 50 mg/kg by gavage BID. The study period was for 56 days+2-3 days testing period afterward. Body weight change measured 3X per week, food intake was measure twice per week, metabolic biomarkers (blood glucose, blood insulin, blood HbA1c, HDL, LDL, triglyceride and bile acid) were measured at beginning and end of study. Cytokine analysis was measured at end on Day 56.
# [5] = 23.1 mg/kg BID, pre-dose to day 28, not statistically significant
# [6] = DA 50 mg/kg BID, day 56, no significant difference
# [7] = DA 50 mg/kg gavage BID, 56 days
# [8] = DA 50 mg/kg gavage BID, compared to vehicle
structure (smiles),measurement,setting,value
"CC(=O)[O-].CC[N+](CC)(CC(=O)Nc1c(C)cccc1C)Cc1ccccc1 [DA, denatonium acetate]",average daily average individual food intake,"[1]; 23.1 mg/kg BID gavage, 28 days",no difference
same,GM-CSF in blood,"[1]; 23.1 mg/kg BID gavage, day 28",significant decreases
same,IFNγ in blood,"[1]; 23.1 mg/kg BID gavage, day 28",significant decreases
same,IL-5 in blood,"[1]; 23.1 mg/kg BID gavage, day 28",significant decreases
same,IL-10 in blood,"[1]; 23.1 mg/kg BID gavage, day 28",significant decreases
same,IL-12 in blood,"[1]; 23.1 mg/kg BID gavage, day 28",significant decreases
same,KC/CXCL1 in blood,"[1]; 23.1 mg/kg BID gavage, day 28",significant decreases
same,M-CSF in blood,"[1]; 23.1 mg/kg BID gavage, day 28",significant decreases
same,blood HDL level,"[1]; 23.1 mg/kg BID gavage, day 28",statistically significant decrease
same,blood HbA1c levels,"[1]; 23.1 mg/kg BID gavage, day 28",no statistically significant difference
same,blood LDL levels,"[1]; 23.1 mg/kg BID gavage, day 28",no statistically significant difference
same,blood bile acid levels,"[1]; 23.1 mg/kg BID gavage, day 28",no statistically significant difference
same,blood insulin levels,"[1]; 23.1 mg/kg BID gavage, day 28",no statistically significant difference
same,blood total cholesterol levels (LDL plus HDL),"[1]; 23.1 mg/kg BID gavage, day 28",almost significant decrease
same,fasting blood glucose level,"[1]; 23.1 mg/kg BID gavage, day 28",no statistically significant difference
same,body weight change,"[1]; 23.1 mg/kg BID gavage, days 1-28, P=0.105",no significant main effect
same,body weight change at day 28,[1]; 23.1 mg/kg BID gavage,no statistically significant difference
same,cumulative food consumption over 28 days,[1]; 23.1 mg/kg BID gavage,no statistically significant difference
same,change in granulocyte number,[1]; [5],trend of increasing change
same,change in lymphocyte and white blood cell numbers and percentage,[1]; [5],trend of increasing change
same,change in monocyte number and percentage,[1]; [5],trend of increasing change
same,"Eotaxin, Decreased Percentage Compared to Vehicle",[2],−18.6%
same,"G-CSF, Decreased Percentage Compared to Vehicle",[2],−37.5%
same,"GM-CSF, Decreased Percentage Compared to Vehicle",[2],−2.3%
same,"IFN-γ, Decreased Percentage Compared to Vehicle",[2],−37.3%
same,"IL-1α, Decreased Percentage Compared to Vehicle",[2],−18.2%
same,"IL-1β, Decreased Percentage Compared to Vehicle",[2],−12.0%
same,"IL-3, Decreased Percentage Compared to Vehicle",[2],−74.5%
same,"IL-5, Decreased Percentage Compared to Vehicle",[2],−29.1%
same,"IL-6, Decreased Percentage Compared to Vehicle",[2],−34.2%
same,"IL-10, Decreased Percentage Compared to Vehicle",[2],−92.5%
same,"IL-12 (p70), Decreased Percentage Compared to Vehicle",[2],−28.0%
same,"IL-17, Decreased Percentage Compared to Vehicle",[2],−21.2%
same,"KC, Decreased Percentage Compared to Vehicle",[2],−21.6%
same,"LIX, Decreased Percentage Compared to Vehicle",[2],−7.3%
same,"MCP-1, Decreased Percentage Compared to Vehicle",[2],−24.2%
same,"MIG, Decreased Percentage Compared to Vehicle",[2],−13.2%
same,"MIP-1α, Decreased Percentage Compared to Vehicle",[2],−3.4%
same,"MIP-1β, Decreased Percentage Compared to Vehicle",[2],−10.2%
same,"MIP-2, Decreased Percentage Compared to Vehicle",[2],−76.3%
same,"RANTES, Decreased Percentage Compared to Vehicle",[2],−20.6%
same,IL-1β level,[3]; higher dose of DA,significant reduction
same,IL-10 level,[3]; higher dose of DA,significant reduction
same,IL-17 level,[3]; higher dose of DA,significant reduction
same,TNF-1α level,[3]; higher dose of DA,significant reduction
same,IL-6 levels in air pouch exudates,"[3]; pre-treated with DA at 96.4 mg/kg BID gavage, ELISA, vs vehicle and lower dose",significantly lower
same,infiltrating cell count in air pouch exudates,"[3]; pre-treated with DA at 96.4 mg/kg BID gavage, vs vehicle and lower dose",significantly lower
same,"IL-1β level, decreased by, compared to the vehicle group",[4]; [6],19.1%
same,"IL-6 level, decreased by, compared to the vehicle group",[4]; [6],61.4%
same,"MCP-1 level, decreased by, compared to the vehicle group",[4]; [6],20.9%
same,"RANTES level, decreased by, compared to the vehicle group",[4]; [6],1.7%
same,MIG (versus controls),"[4]; DA 50 mg/kg BID, day 56, p=0.026",significant decreases
same,Eotaxin (versus controls),"[4]; DA 50 mg/kg BID, day 56, p=0.047",significant decreases
same,serum HDL levels,[4]; DA 50 mg/kg gavage BID,no significant effects
same,body weight,[4]; [7],no significant effect
same,daily food consumption,[4]; [7],no significant effect
same,serum HBA1c levels,[4]; [7],no significant effect
same,serum glucose levels,[4]; [7],significantly decreased
same,serum insulin levels,[4]; [7],no significant effect
same,serum LDL levels,[4]; [8],significantly lowered
same,serum bile acids levels,[4]; [8],significantly increased
same,serum triglyceride levels,[4]; [8],significantly lowered
